In publication PMC10880909, “Correction: A high-throughput effector screen identifies a novel small molecule scaffold for inhibition of ten-eleven translocation dioxygenase 2” (RSC Medicinal Chemistry, 2024):

Molecular target: hTET2 (Homo sapiens, UniProt Q6N021)
Experiment: MALDI-based inhibition assay of hTET2
Settings: for hTET2 inhibition, result in words: additional SAR / re-synthesis

SMILES | IC50 [µM] | hTET2 inhibition, result in words
CC(C)OS(=O)(=O)c1ccc(F)c2ncc(I)cc12 [Compound 5] | > 200 | –
CCCCCOS(=O)(=O)c1ccc(F)c2ncc(I)cc12 [Compound 6] | > 200 | –
NS(=O)(=O)c1ccc(F)c2ncc(I)cc12 [Compound 8] | > 200 | –
CNS(=O)(=O)c1ccc(F)c2ncc(I)cc12 [Compound 9] | > 200 | –
O=S(=O)(c1ccc(F)c2ncc(I)cc12)N1CCCC1 [Compound 10] | > 200 | –
O=S(=O)(Nc1ccccc1)c1ccc(F)c2ncc(I)cc12 [Compound 11] | > 200 | –
O=S(=O)(NCc1ccccc1)c1ccc(F)c2ncc(I)cc12 [Compound 13] | > 200 | –
O=S(=O)(NCCc1ccccc1)c1ccc(F)c2ncc(I)cc12 [Compound 14] | > 200 | –
O=S(=O)(Nc1cccc(O)c1)c1ccc(F)c2ncc(I)cc12 [Compound 16] | > 200 | –
O=S(=O)(O)c1ccc(O)c2ncccc12 [Compound 18] | 12.1 ± 4.2 | –
O=C(O)c1ccc(F)c2ncccc12 [Compound 19] | > 200 | inactivity
Oc1cc2c(cc1O)CNCC2 [Compound 21, tetrahydroisoquinoline-6,7-diol] | 8.6 | micromolar IC50 values
O=C(O)c1ncccc1O [Compound 22, 3-hydroxypicolinic acid] | 48.6 | micromolar IC50 values
